Test results taken from publication PMC8645336, “Benchmarking a highly selective USP30 inhibitor for enhancement of mitophagy and pexophagy” (Life Science Alliance, 2021).

How the values were obtained:
Assay in all cases: biochemical
Parameters in all cases: Ubiquigent DUB profiler selectivity panel, remaining enzyme activity as % of control
Settings in all cases: read-out: % of control remaining
[1] = biological target: T1, UCHL1 (Homo sapiens, UniProt P09936)
T1 sequence (P09936 1-223): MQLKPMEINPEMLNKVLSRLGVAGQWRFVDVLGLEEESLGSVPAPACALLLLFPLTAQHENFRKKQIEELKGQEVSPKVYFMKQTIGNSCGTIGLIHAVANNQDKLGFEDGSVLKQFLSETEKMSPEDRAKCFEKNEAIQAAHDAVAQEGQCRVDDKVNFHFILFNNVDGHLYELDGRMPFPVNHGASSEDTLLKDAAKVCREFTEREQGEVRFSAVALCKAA
How it was run: (§1)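 CMPD-39 selectivity was profiled at 1-100 μM across >40 DUBs. Cellular engagement used 2 h CMPD-39 pretreatment, then HA-Ub-PA probe for 10 min at 37°C, with USP30 band shift on immunoblot. TOMM20 ubiquitylation was blotted in YFP-PRKN hTERT-RPE1 cells after 1 h antimycin A/oligomycin A (1 μM each).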

[2] = biological target: T2, USP30 (Homo sapiens, UniProt Q70CQ3)
T2 sequence (Q70CQ3 1-517): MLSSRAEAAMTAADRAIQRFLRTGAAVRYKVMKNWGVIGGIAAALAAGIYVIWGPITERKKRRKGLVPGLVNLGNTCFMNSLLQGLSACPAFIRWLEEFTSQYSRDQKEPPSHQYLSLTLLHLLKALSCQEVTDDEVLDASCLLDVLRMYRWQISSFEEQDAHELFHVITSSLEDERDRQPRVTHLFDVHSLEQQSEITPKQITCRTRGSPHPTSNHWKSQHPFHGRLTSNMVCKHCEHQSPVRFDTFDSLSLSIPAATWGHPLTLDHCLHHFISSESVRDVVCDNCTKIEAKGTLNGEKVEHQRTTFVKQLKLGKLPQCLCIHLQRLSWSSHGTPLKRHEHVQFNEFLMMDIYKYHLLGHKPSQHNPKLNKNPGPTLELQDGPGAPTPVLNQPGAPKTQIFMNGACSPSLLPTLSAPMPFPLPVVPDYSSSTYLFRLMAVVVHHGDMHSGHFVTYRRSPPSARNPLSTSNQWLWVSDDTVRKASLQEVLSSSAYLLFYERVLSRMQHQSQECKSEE
How it was run: as §1

[3] = biological target: T3, USP5 (Homo sapiens, UniProt P45974)
T3 sequence (P45974 1-858): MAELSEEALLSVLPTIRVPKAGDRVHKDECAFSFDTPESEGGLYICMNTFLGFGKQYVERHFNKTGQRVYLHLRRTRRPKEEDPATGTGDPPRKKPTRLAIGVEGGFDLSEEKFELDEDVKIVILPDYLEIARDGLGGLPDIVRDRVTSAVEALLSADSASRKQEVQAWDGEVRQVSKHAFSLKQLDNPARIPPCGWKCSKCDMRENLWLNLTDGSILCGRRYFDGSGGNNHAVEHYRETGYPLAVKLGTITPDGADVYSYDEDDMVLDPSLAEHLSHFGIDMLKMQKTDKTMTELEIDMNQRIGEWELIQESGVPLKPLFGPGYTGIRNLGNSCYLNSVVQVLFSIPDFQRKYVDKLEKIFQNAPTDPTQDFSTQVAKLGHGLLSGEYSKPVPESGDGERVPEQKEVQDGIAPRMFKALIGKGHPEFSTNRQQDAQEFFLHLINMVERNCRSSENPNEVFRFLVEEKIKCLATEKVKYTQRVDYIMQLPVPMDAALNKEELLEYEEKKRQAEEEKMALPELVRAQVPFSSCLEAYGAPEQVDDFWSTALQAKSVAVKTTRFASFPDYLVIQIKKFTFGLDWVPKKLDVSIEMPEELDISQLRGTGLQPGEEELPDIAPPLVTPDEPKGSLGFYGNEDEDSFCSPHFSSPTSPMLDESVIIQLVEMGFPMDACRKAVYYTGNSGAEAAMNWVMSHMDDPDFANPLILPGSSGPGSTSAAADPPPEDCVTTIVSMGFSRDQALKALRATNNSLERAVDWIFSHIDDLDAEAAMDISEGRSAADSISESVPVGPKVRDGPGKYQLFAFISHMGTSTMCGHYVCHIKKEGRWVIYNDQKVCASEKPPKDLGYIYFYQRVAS
How it was run: as §1

remaining activity at 1 µM [1]: 103% | remaining activity at 10 µM [1]: 98.5% | remaining activity at 100 µM [1]: 96.3% | remaining activity at 1 µM [2]: 0.756% | remaining activity at 10 µM [2]: 0.5% | remaining activity at 100 µM [2]: 3.27% | remaining activity at 1 µM [3]: 104% | remaining activity at 10 µM [3]: 101% | remaining activity at 100 µM [3]: 106%
SMILES: CC(C)(C)NS(=O)(=O)c1ccc(NC(=O)[C@H](Cc2ccccc2)NC(=O)c2ccc(F)cc2)cc1 [compound 39, CMPD-39]
